In publication PMC12521730, “Quantitative dual-isotope preclinical SPECT/CT imaging and biodistribution of the mercury-197m/g theranostic pair with [^197m/gHg]HgCl2 and a [^197m/gHg]Hg-tetrathiol complex as a platform for radiopharmaceutical development” (EJNMMI Radiopharmacy and Chemistry, 2025):
“Also recorded” adds a separate entry of the source.

Experiment: In vivo SPECT/CT imaging
Parameters: species or system healthy male C57BL/6 mice
Settings: for organs of tracer accumulation (qualitative): 0-2 h post injection
Procedure: For animal injection, the tracer was prepared at high molar activity. Radiolabeling of H4Tetrathiol (10^–2 M in DMSO; 40 μL for imaging, 20 μL for bioD) (or DMSO, for [^197m/gHg]HgCl2 mice) with [^197m/gHg]HgCl2 (imaging: 26.7 MBq total m + g, 62 μL; bioD: 13.04 MBq total m + g, 31 μL) was performed in a mixture of ammonium acetate buffer (1 M; pH 7; 198 μL for imaging or 149 μL for bioD) and 6 M NaOH (72 μL or 38 μL required to achieve a pH of 7.5 after addition of activity, for imaging or BioD labeling, respectively). The reaction was allowed to stand for 1 h at 37 °C and quantitative (> 99%) non-isolated percentage radiochemical yield (%RCY) was confirmed via the iTLC methods mentioned above. Further, 100 µL of the reaction was diluted with 50 µL of PBS Tween-20 (0.01 M sodium phosphate, 0.15 M NaCl, 0.05% Tween-20) for imaging mice, or 50 µL of the reaction was diluted with 100 µL of PBS Tween-20 for BioD mice. The tracers were prepared immediately before injection to avoid radiolysis and minimize the tracer loss to any surfaces due to its lipophilicity. The injected doses of each isomer, ^197mHg and ^197gHg, were quantified by measuring an aliquot of known volume of each tracer preparation via HPGe gamma spectroscopy and decay corrected for time of injection using the Eqs. (1) and (2).
The study was conducted in compliance with the guidelines set by the Canadian Council on Animal Care (CCAC) and approved by the Animal Care Committee (ACC) at the University of British Columbia (A20-0132). A total of eight healthy male C57BL/6 mice weighing approximately 30 g for group 1 and 25 g for group 2 were used in the study. The mice were divided into two experimental groups: group 1 (n = 4) received free [^197m/gHg]HgCl2, while group 2 (n = 4) received [^197m/gHg]Hg-Tetrathiol. Within each group, one mouse was allocated for imaging, while the rest were designated for ex vivo biodistribution analysis. For SPECT imaging, the designated mice were anesthetized using isoflurane via a precision vaporizer. […] Once anesthetized, each imaging mouse received an intravenous (IV) injection via the lateral tail vein of 150 μL of [^197m/gHg]HgCl2 (0.492 MBq ^197mHg + 3.171 MBq ^197gHg) or [^197m/gHg]Hg-Tetrathiol (0.899 MBq ^197mHg + 4.230 MBq ^197gHg) in PBS Tween-20 (0.01 M Na Phosphate, 0.15 M NaCl, 0.05% Tween-20).
The animals were immediately placed in the scanner and whole-body scans were acquired dynamically during 120 min post-injection (6 frames × 20 min/frame). Throughout the entire scanning procedure, mice were kept under isoflurane anesthesia and body temperature was maintained constant using a heated imaging bed. […] These energy window settings yielded the optimum, and most robust quantification results based on the phantom experiments (vide supra). […]

Compound | organs of tracer accumulation (qualitative) | organs of tracer accumulation (qualitative) (listed as [^197m/gHg]Hg-tetrathiol) | blood clearance and excretion (qualitative) (compared with [197m/gHg]HgCl2)
O=C(CC[S-])OCC(COC(=O)CC[S-])(COC(=O)CC[S-])COC(=O)CC[S-].[Hg+2] [[^197m/gHg]Hg-Tetrathiol] | predominantly accumulates in the spleen and liver | tracer accumulation primarily in the liver and spleen | faster blood clearance and excretion through the reticuloendothelial system (RES)
[Cl][Hg][Cl] [[^197m/gHg]HgCl2] | primarily accumulating in the kidneys; also recorded: strong affinity for the kidneys |  | 
